Assay results taken from PubChem BioAssay (NCI).
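1) Cells in 96-well plates. 2) Compound, 48 h, 5 concentrations. 3) Linear interpolation between surrounding doses. 4) Unreached endpoint = highest concentration. TGI denotes the concentration required for complete inhibition of growth.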

What was measured:
Test in all cases: NCI tumour cell line growth inhibition, 48 h
MCF7 breast = tested on: MCF7 breast
SK-MEL-2 melanoma = tested on: SK-MEL-2 melanoma
HL-60(TB) leukemia = tested on: HL-60(TB) leukemia
PC-3 prostate = tested on: PC-3 prostate
MOLT-4 leukemia = tested on: MOLT-4 leukemia
HCT-15 colon = tested on: HCT-15 colon
MDA-MB-435 = tested on: MDA-MB-435
NCI-H226 lung = tested on: NCI-H226 lung
HOP-62 NSCLC = tested on: HOP-62 NSCLC
NCI-H460 lung = tested on: NCI-H460 lung
MDA-N = tested on: MDA-N
COLO 205 colon = tested on: COLO 205 colon
RPMI-8226 leukemia = tested on: RPMI-8226 leukemia
HOP-92 NSCLC = tested on: HOP-92 NSCLC
DU-145 prostate = tested on: DU-145 prostate
NCI/ADR-RES ovarian = tested on: NCI/ADR-RES ovarian
HCT-116 colon = tested on: HCT-116 colon
A498 renal = tested on: A498 renal
LOX IMVI melanoma = tested on: LOX IMVI melanoma

Compound	TGI (MCF7 breast) [µM]	TGI (SK-MEL-2 melanoma) [µM]	TGI (HL-60(TB) leukemia) [µM]	TGI (PC-3 prostate) [µM]	TGI (MOLT-4 leukemia) [µM]	TGI (HCT-15 colon) [µM]	TGI (MDA-MB-435) [µM]	TGI (NCI-H226 lung) [µM]	TGI (HOP-62 NSCLC) [µM]	TGI (NCI-H460 lung) [µM]	TGI (MDA-N) [µM]	TGI (COLO 205 colon) [µM]	TGI (RPMI-8226 leukemia) [µM]	TGI (HOP-92 NSCLC) [µM]	TGI (DU-145 prostate) [µM]	TGI (NCI/ADR-RES ovarian) [µM]	TGI (HCT-116 colon) [µM]	TGI (A498 renal) [µM]	TGI (LOX IMVI melanoma) [µM]
Cc1nc2c(o1)C(=O)c1ccccc1C2=Nc1ccc(N2CCOCC2)cc1	7.9	9.63	7.24	7.37	31.5	15.8	3.58	42.1	22.3	26.8	3.5	55.5	25.5	> 100	7.81	> 29.6	13.6	35.4	8.62
Cc1nc2ccccc2c(=O)n1NC(=S)Nc1ccc(Cl)cc1[N+](=O)[O-]	> 100	> 100	> 100	> 100	> 100	> 100	> 100		> 100	> 100	> 100	> 100	> 100	> 100	> 100	> 100	> 100	> 100	
Cc1cc(-c2nc3ccc(F)cc3s2)ccc1N	> 100	> 100		> 100	> 100	> 100	> 100	> 100	> 100		> 100	> 100	> 100	> 100	> 100	> 100	> 100	> 100	> 100
Cc1ccc(C)c2c1CC(Cc1ccccc1C(=O)O)C2=O (stereo not drawn)	> 100	> 100	> 100	> 100	> 100	> 100	> 100	> 100	> 100	> 100	> 100	> 100		> 100	> 100	> 100	> 100		> 100
c1ccc(C(=NNc2cnc3ccccc3n2)c2ccccn2)cc1	12.2	26.2	12.3	19.2	11.4	14.5	> 47.6	40.6	20	10.5	> 52.2	24.6	> 36.8	28.3	> 61.3	2.15	> 36.6	> 100	
C/C(=N\NC(=S)N(C)CCN(C)C(=S)N/N=C(\C)c1ccccn1)c1ccccn1	18.3	24.4	3.95	18.8	46.3	18.5	> 100	3.48	19		19.3	0.912	23.7	16.4	13.1	2.02	11.5	3	22.6
CN(C)Cc1cc(C=O)cc(CN(C)C)c1O	> 100		> 100	> 100	> 100	> 100	> 100	> 100	> 100	> 100	> 100	> 100	> 100	> 100	> 100	> 100	> 100	> 100	> 100
CC(C)SC(NC(=O)C1C(C)(C)CCC1(C)C)C(=O)O (stereo not drawn)	> 100	> 100	> 100	> 100		> 100	> 100	> 100	> 100	> 100	> 100	> 100	> 100	> 100	> 100	> 100	> 100	> 100	> 100
C#CCCCOc1ncccn1	> 100	> 100	> 100	> 100	> 100		> 100	> 100	> 100		> 100	> 100	> 100	> 100	> 100	> 100	> 100	> 100	> 100
CCOC(=O)C(NCc1cccc(C(F)(F)F)c1)(NC(=O)CC)C(F)(F)F (stereo not drawn)	> 100	> 100	> 100	> 100	> 100	> 100	> 100	> 100	> 100		> 100	> 100	> 100	> 100	> 100	> 100	> 100		> 100
CC(C)(C)OC(=O)C1CC[C@@H](CC(=O)Oc2ccc([N+](=O)[O-])cc2)N1 (stereo partly drawn)	> 100	> 100	> 100	> 100	> 100	> 100	> 100	> 100		> 100	> 100	> 100	> 100	> 100	> 100	> 100	> 100	> 100	> 100
Cc1ccc(-c2nc(-c3cnccn3)n(C3OC(CO)C(O)C(O)C3O)n2)cc1 (stereo not drawn)	> 100		> 100	> 100	> 100	> 100	> 100		> 100	> 100	> 100	> 100	> 100	> 100	> 100	> 100	> 100		> 100
CC(=O)O[C@H]1CCC2[C@@H]3CCC4Cc5nc6c(nc5C[C@]4(C)C3CC[C@@]21C)CC1CC[C@@H]2C(CC[C@@]3(C)C2CC[C@@H]3C(C)CCCC(C)C)[C@@]1(C)C6 (stereo partly drawn)	> 100	> 100	> 100	> 100	> 100	> 100	> 100	> 100	> 100	> 100	> 100	> 100	> 100	> 100	> 100	> 100	> 100		> 100
